From ChEMBL document CHEMBL4308834, “Novel Allosteric Activators for Ferroptosis Regulator Glutathione Peroxidase 4” (J Med Chem, 2018)
Active and inactive are the calls of the source. No cut-off for these calls is given here.

Assays:
[1] = species on record: Homo sapiens; experiment: (§1) Activation of recombinant His-tagged human cytosolic GPX4 U46C mutant expressed in Escherichia coli M15 assessed as increase in oxidized glutathione-mediated oxidation of NADPH to NADP+ using tert-butyl hydroperoxide as substrate preincubated for 5 mins followed by substrate addition measured for 6 mins by glutathione reductase enzyme coupled fluorescence assay
[2] = species on record: Homo sapiens; experiment: as §1, with “NADP+ at 0.4 to 250 uM” for “NADP+”, “assay relative to control” for “assay”
[3] = molecular target: T1, Phospholipid hydroperoxide glutathione peroxidase GPX4 (Homo sapiens) (UniProt P36969); experiment: Activation of GPX4 in human HT1080 cells assessed as inhibition of erastin-induced ferroptosis at 125 uM preincubated for 30 mins followed by erastin addition measured after 24 hrs by MTS assay; assay type: cell-based
T1 sequence (whole entry): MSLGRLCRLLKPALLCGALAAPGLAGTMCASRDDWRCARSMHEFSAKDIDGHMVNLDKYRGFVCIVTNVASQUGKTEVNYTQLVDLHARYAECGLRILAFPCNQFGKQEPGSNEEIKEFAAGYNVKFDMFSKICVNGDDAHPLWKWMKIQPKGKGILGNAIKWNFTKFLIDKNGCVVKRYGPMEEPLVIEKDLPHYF

[4] = molecular target: T1, Phospholipid hydroperoxide glutathione peroxidase GPX4 (Homo sapiens); experiment: Activation of GPX4 in A23187-stimulated human PMN leukocytes assessed as increase in 5-HETE/LTB4 ratio preincubated for 15 mins followed by A23187 addition and measured after 120 mins by LC-MS analysis
[5] = molecular target: T1, Phospholipid hydroperoxide glutathione peroxidase GPX4 (Homo sapiens); experiment: Activation of GPX4 in A23187-stimulated human PMN leukocytes assessed as increase in 15-HETE preincubated for 15 mins followed by A23187 addition and measured after 120 mins by LC-MS analysis
[6] = molecular target: Prostaglandin G/H synthase 1 (Homo sapiens) (UniProt P23219); experiment: Inhibition of COX1 (unknown origin) at 500 uM preincubated for 15 mins followed by arachidonic acid substrate addition in presence of TMPD by spectrophotometric method
[7] = molecular target: T2, Polyunsaturated fatty acid lipoxygenase ALOX15 (Homo sapiens) (UniProt P16050); experiment: Inhibition of 15-LOX (unknown origin) at 500 uM preincubated for 1 mins followed by arachidonic acid substrate addition by spectrophotometric method
T2 sequence (whole entry): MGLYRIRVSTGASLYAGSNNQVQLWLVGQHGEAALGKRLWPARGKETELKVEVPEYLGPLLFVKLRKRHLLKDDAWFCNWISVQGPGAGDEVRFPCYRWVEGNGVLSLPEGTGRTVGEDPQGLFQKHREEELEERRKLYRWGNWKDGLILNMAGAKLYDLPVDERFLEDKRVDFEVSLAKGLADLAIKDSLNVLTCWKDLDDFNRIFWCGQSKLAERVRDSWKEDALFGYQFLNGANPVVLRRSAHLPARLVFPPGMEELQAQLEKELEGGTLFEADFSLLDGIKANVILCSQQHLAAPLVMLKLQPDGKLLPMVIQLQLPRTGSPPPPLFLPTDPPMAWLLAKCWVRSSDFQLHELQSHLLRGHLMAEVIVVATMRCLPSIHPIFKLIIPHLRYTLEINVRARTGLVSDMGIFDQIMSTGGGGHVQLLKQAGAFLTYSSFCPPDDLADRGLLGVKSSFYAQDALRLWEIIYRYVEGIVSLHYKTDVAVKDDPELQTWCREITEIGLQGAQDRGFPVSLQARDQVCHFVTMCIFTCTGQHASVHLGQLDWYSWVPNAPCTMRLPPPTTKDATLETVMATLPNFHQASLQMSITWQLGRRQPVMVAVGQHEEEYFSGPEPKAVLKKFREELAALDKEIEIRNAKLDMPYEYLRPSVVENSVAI

[8] = molecular target: T3, Prostaglandin E synthase (Homo sapiens) (UniProt O14684); experiment: Inhibition of mPGES1 (unknown origin) at 500 uM preincubated for 15 mins followed by PGH2 substrate addition and measured after 1 min by EIA relative to control
T3 sequence (whole entry): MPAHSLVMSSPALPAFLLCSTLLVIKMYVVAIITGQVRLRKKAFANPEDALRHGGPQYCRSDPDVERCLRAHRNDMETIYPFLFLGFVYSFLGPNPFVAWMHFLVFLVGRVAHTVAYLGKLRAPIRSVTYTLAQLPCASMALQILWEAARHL

[9] = molecular target: T4, Leukotriene A-4 hydrolase (Homo sapiens) (UniProt P09960); experiment: Inhibition of LTA4H (unknown origin) at 500 uM preincubated for 15 mins followed by LTA4 substrate addition and measured after 10 mins by ELISA relative to control
T4 sequence (whole entry): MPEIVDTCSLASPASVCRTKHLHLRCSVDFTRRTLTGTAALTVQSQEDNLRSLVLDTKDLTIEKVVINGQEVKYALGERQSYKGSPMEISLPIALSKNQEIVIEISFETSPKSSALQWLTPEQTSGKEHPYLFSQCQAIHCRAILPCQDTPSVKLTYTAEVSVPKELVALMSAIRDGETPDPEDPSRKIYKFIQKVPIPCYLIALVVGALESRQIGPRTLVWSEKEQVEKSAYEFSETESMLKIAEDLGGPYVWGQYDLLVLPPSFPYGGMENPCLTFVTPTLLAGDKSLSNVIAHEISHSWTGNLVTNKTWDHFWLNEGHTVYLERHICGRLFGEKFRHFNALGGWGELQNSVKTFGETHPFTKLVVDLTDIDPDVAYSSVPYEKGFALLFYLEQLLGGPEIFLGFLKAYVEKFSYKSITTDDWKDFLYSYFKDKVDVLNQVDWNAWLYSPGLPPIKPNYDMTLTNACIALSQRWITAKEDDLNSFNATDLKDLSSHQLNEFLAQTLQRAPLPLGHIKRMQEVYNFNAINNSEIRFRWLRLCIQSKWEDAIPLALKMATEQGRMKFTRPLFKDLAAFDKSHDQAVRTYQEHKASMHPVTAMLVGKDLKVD

[10] = molecular target: T1, Phospholipid hydroperoxide glutathione peroxidase GPX4 (Homo sapiens); experiment: Activation of GPX4 (unknown origin) expressed in HEK293T cells harboring luc2P/NF-kBRE/Hygro plasmid assessed as inhibition of IL1beta-stimulated NFkB activation preincubated for 30 mins followed by […] and measured after 6 hrs by luciferase reporter gene assay; assay type: cell-based
[11] = species on record: Homo sapiens; experiment: as §1, with “NADP+ at 200 uM” for “NADP+”, “assay relative to control” for “assay”
[12] = species on record: Homo sapiens; experiment: as §1, with “recombinant” for “recombinant His-tagged”, “human” for “human cytosolic”, “D21A/U46C double” for “U46C”, “assay relative to GPX4 U46C mutant control” for “assay”
[13] = species on record: Homo sapiens; experiment: as §1, with “recombinant” for “recombinant His-tagged”, “human” for “human cytosolic”, “D21A/D23A/U46C” for “U46C”, “assay relative to GPX4 U46C mutant control” for “assay”
[14] = Zinc chelating activity in presence of ZnSO4 after 10 mins by crystal violet staining based assay

Sequence of Prostaglandin G/H synthase 1 (Homo sapiens) (P23219 whole entry): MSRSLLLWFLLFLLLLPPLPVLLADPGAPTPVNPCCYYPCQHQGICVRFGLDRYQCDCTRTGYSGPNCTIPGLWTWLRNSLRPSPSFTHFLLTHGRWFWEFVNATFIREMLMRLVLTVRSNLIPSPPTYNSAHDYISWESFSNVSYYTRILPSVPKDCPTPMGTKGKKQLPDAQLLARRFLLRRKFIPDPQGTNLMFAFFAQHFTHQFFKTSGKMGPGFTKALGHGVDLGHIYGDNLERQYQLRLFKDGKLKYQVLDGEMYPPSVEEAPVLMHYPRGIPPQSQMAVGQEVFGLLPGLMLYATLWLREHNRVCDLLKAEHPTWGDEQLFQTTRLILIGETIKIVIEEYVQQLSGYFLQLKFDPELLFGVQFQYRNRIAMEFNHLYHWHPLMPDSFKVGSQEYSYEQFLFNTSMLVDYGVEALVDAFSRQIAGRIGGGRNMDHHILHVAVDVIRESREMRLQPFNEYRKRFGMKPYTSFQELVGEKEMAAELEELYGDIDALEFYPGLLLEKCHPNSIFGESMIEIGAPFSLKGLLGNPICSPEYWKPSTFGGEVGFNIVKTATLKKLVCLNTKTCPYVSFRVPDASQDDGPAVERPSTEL

SMILES: NS(=O)(=O)c1ccc(NC(S)=NCc2ccc(Cl)cc2)cc1
- Activity [1]: Dose-dependent effect
- EC150 [1]: 248 µM
- Emax [2]: 263%
- inhibition [3]: Active
- Activity [4]: Dose-dependent effect
- Activity [5]: Dose-dependent effect
- inhibition [6]: inactive
- inhibition [7]: inactive
- inhibition [8]: 23%
- inhibition [9]: 17%
- inhibition [10]: Dose-dependent effect
- Activity [11]: 127%
- EC150 [12]: 618 µM
- EC150 [13]: > 1000 µM
- Activity [14]: inactive
